In assay [1] the test system is p-ERK in KRAS^G12D mutant AsPC-1 cells. The experiment in a line: Assay of p-ERK inhibition in AsPC-1 cells (HTRF). Particulars: HTRF method, 1 hour incubation with compound. Type of assay: cell-based. On the technique in general: TR-FRET usually uses a lanthanide donor and a delayed reading to cut background.
Description: • 1) ASPC-1 cells were inoculated in a transparent 96-well cell culture plate, and each well contained 80 μL of cell suspension and 8000 cells. The cell plate was inoculated in a carbon dioxide incubator at 37° C. overnight; • 2) After completion of the incubation, the cell supernatant was discarded. […] 2 μL of the compound was weighed and added to 78 μL of a cell starvation medium. After the mixture was mixed thoroughly, 20 μL of the solution of compound was weighed and added to the corresponding well of the cell plate. […] 50 μL of cell lysate was added to each well. […] The mixture was incubated at room temperature for 4 hours; • 7) After completion of the incubation, HTRF was read with multi-label analyzer: excitation: 320 nm, emission: 615 nm, 665 nm.
Assay [2] relates to p-ERK in KRAS^G12D mutant AGS cells. In words: Assay of p-ERK inhibition in AGS cells (HTRF). Type of assay: cell-based. Particulars: Homo sapiens, 3 hours incubation with compound. As to the method: • 1) AGS cells were inoculated in a transparent 96-well cell culture plate, and each well contained 80 μL of cell suspension and 10000 cells. […] 80 μL of medium containing 0.02% serum was added to each well. The cell plate was incubated in a carbon dioxide incubator at 37° C. overnight; • 3) 2 μL of the compound was weighed and added to 78 μL of the cell medium. After the mixture was mixed thoroughly, 20 μL of the solution of compound was weighed and added to the corresponding well of the cell plate. […] 50 μL of 1× cell lysate was added to each well. […] The mixture was incubated at room temperature for at least 4 hours; • 7) After completion of the incubation, HTRF was read with multi-label analyzer: excitation: 320 nm, emission: 615 nm, 665 nm; • 8). IC50 of the compound to be assayed was calculated. […]
• 1) AGS cells were inoculated in a transparent 96-well cell culture plate, and each well contained 80 μL of cell suspension and 10000 cells. […] The mixture was incubated at room temperature for at least 4 hours; • 7) After completion of the incubation, HTRF was read with multi-label analyzer: excitation: 320 nm, emission: 615 nm, 665 nm; • 8). IC50 of the compound to be assayed was calculated.

Here are results for three compounds from patent publication US20250109146A1, “BRIDGED RING-SUBSTITUTED HETEROARYL-PYRAN DERIVATIVE, AND USE THEREOF” (priority 2022, published 2025).

Counter-ions that a name gives are not always drawn.

What is called IC50 is the concentration that inhibits the measured activity by half. As for `CC#Cc1cc(N)c(F)c([C@H]2Cc3nc(OC[C@]45CCCN4C/C(=C\F)C5)nc(N4CC5CCC(C4)N5)c3CO2)c1C(F)(F)F` [Compound 11 formate], in assay [1], the IC50 worked out at 0.9 nM.
`C#Cc1c(F)ccc2cc(N)cc(C3Cc4nc(OC[C@@]56CCCN5C[C@H](F)C6)nc(N5CC6CCC(C5)N6)c4CO3)c12` (stereo partly drawn) [Compound 3 hydrochloride]: the half-maximal inhibitory concentration (IC50) in assay [2] was found to be 64.6 nM.
As to `CC#Cc1cc(N)c(F)c([C@@H]2Cc3nc(OC[C@]45C=CCN4CCC5)nc(N4CC5CCC(C4)N5)c3CO2)c1C(F)(F)F` [Compound 10 hydrochloride], the concentration for half-maximal inhibition (IC50) in assay [1] was determined as 1.1 nM.
